# Measured values as given in article PMC6039382 (Journal of Cardiovascular Pharmacology, 2018).
# Positions count from the first letter of the chain named. “Also recorded” adds a separate entry of the source.
# Legend:
# PPAR-α = settings: cited from earlier work
# human PPAR-γ = target: T1, human PPAR-γ (Homo sapiens, UniProt P37231); assay: PPAR-γ agonist transactivation assay, Gal4-LBD luciferase reporter cells
# T1 sequence (P37231 238-503 limits assumed): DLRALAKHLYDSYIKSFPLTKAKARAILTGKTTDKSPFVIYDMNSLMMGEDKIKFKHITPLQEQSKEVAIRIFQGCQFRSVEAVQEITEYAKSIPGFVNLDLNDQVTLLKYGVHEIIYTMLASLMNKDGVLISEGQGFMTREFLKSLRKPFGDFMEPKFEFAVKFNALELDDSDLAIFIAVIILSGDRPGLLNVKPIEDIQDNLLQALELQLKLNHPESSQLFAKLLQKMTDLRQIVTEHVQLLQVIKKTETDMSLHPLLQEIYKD
# rat PPAR-α = target: T2, rat PPAR-α (Rattus norvegicus, UniProt P37230); assay: PPAR-α agonist transactivation assay, Gal4-LBD luciferase reporter cells; type: cell-based; settings: gemcabene up to 300 μM
# T2 sequence (P37230 239-466 limits assumed): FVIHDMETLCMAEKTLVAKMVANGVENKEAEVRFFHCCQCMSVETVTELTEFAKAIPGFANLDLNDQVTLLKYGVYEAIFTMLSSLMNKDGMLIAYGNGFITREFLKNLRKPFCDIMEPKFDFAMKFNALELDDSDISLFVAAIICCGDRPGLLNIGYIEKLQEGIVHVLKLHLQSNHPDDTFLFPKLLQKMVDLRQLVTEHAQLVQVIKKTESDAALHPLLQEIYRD
# mouse PPAR-α = target: T3, mouse PPAR-α (Mus musculus, UniProt P23204); assay: as above; type: cell-based; settings: gemcabene up to 300 μM
# T3 sequence (P23204 239-466 limits assumed): T2 sequence (P37230 239-466 limits assumed) with N27D
# human PPAR-α = target: T4, human PPAR-α (Homo sapiens, UniProt Q07869); assay: as above; type: cell-based
# T4 sequence (Q07869 239-466 limits assumed): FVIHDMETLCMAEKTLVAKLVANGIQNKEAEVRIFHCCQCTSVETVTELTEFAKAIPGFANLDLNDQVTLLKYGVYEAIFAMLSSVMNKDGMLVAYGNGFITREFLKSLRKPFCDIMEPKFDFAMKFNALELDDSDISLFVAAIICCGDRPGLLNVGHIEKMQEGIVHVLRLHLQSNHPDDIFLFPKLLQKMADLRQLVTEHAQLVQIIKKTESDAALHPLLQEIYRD
# PPAR-γ = PPAR-γ agonist transactivation, statements made jointly for all species; type: cell-based, human, mouse, rat
smiles,measurement,setting,value
Cc1ccc(C)c(OCCCC(C)(C)C(=O)O)c1 [Gemfibrozil],IC50/EC50 [Literature],PPAR-α,193 µM
COc1ccc(OC(=O)N(CC(=O)O)Cc2ccc(OCCc3nc(-c4ccccc4)oc3C)cc2)cc1 [Muraglitazar],agonist activity (in words),human PPAR-γ,agonist activity
same,activation,human PPAR-γ; maximal,16 fold
same,agonist activity (in words),rat PPAR-α,not against mouse and rat PPAR-α
same,agonist activity (in words),mouse PPAR-α,not against mouse and rat PPAR-α
same,maximal activation,human PPAR-α,19 fold
same,agonist activity (in words),human PPAR-α; gemcabene up to 300 μM,agonist activity
CN(CCOc1ccc(CC2SC(=O)NC2=O)cc1)c1ccccn1 (centres unmarked) [Rosiglitazone],Comments / agonist activity in words,PPAR-γ,strong activation; also recorded: potent agonist activity
